Tests used:
Assay type in all cases: in vivo
[1] = tested on: Alopecurus myosuroides (ALOMY); test: Post-emergence glasshouse herbicide test; conditions: POST Application, 1000 g/h, after 13 days
How it was run: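 In this glasshouse post-emergence test, ALOMY plants were cultivated in standard soil for 8 days under controlled conditions (24/16° C. day/night, 14 hours light, 65% humidity). They were then treated with a spray derived from an acetone/water (50:50) formulation with 0.5% Tween 20, grown on with watering twice daily, and rated for percentage damage after 13 days.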

[2] = tested on: Amaranthus retoflexus (AMARE); test: Post-emergence glasshouse herbicide test; conditions: POST Application, 1000 g/h, after 13 days
[3] = tested on: Echinochloa crus-galli (ECHCG); test: Post-emergence glasshouse herbicide test; conditions: POST Application, 1000 g/h, after 13 days
[4] = tested on: Ipomoea hederacea (IPOHE); test: Post-emergence glasshouse herbicide test; conditions: POST Application, 1000 g/h, after 13 days
[5] = tested on: Solanum nigrum (SOLNI); test: Post-emergence glasshouse herbicide test; conditions: POST Application, 1000 g/h, after 13 days
How it was run: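 This glasshouse post-emergence herbicide test used Solanum nigrum plants sown in standard soil and cultivated for 8 days under controlled conditions (24/16° C. day/night, 14 hours light, 65% humidity). An aqueous spray from an acetone/water (50:50) solution with 0.5% Tween 20 was applied. Plants were watered twice daily, and damage to each plant was assessed as a percentage 13 days later.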

[6] = tested on: Setaria faberi (SETFA); test: Post-emergence glasshouse herbicide test; conditions: POST Application, 1000 g/h, after 13 days
How it was run: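 This post-emergence glasshouse herbicide test used SETFA plants raised in pots of standard soil for 8 days under controlled conditions (24/16° C., 14 hours light, 65% humidity). An aqueous spray made from acetone/water (50:50) with 0.5% Tween 20 was applied. Plants were watered twice daily, and percentage plant damage was assessed 13 days later.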

[7] = tested on: Alopecurus myosuroides (ALOMY); test: Pre-emergence glasshouse herbicide test; conditions: PRE Application, 1000 g/h, after 13 days
How it was run: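 This pre-emergence glasshouse test used pots of standard soil sown with ALOMY seed and cultivated for one day under controlled conditions of 24/16° C., 14 hours light and 65% humidity. An aqueous spray from an acetone/water (50:50) formulation with 0.5% Tween 20 was applied. After 13 days of further growth with twice-daily watering, plant damage was rated as a percentage.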

[8] = tested on: Amaranthus retoflexus (AMARE); test: Pre-emergence glasshouse herbicide test; conditions: PRE Application, 1000 g/h, after 13 days
[9] = tested on: Echinochloa crus-galli (ECHCG); test: Pre-emergence glasshouse herbicide test; conditions: PRE Application, 1000 g/h, after 13 days
[10] = tested on: Ipomoea hederacea (IPOHE); test: Pre-emergence glasshouse herbicide test; conditions: PRE Application, 1000 g/h, after 13 days
[11] = tested on: Setaria faberi (SETFA); test: Pre-emergence glasshouse herbicide test; conditions: PRE Application, 1000 g/h, after 13 days
[12] = tested on: Solanum nigrum (SOLNI); test: Pre-emergence glasshouse herbicide test; conditions: PRE Application, 1000 g/h, after 13 days

**Q.** How did the “percentage damage caused to the plant, ALOMY” value [1] turn out when Cc1nc2c(cc1F)cc(C(=O)Nc1nnnn1C)c(=O)n2-c1ccsc1 [Compound 6.002] was run?
**A.** 1 (1=0-19%)

**Q.** And the “percentage damage caused to the plant, AMARE” value [2]?
**A.** 5 (5=80-100%)

**Q.** And the “percentage damage caused to the plant, ECHCG” value [3]?
**A.** 4 (4=60-79%)

**Q.** What about the “percentage damage caused to the plant, IPOHE” value [4] of the same compound?
**A.** 5 (5=80-100%)

**Q.** What about the “percentage damage caused to the plant, SOLNI” value [5] of the same compound?
**A.** 5 (5=80-100%)

**Q.** What about the “percentage damage caused to the plant, SETFA” value [6] of the same compound?
**A.** 2 (2=20-39%)

**Q.** What about the “percentage damage caused to the plant, ALOMY” value [7] of the same compound?
**A.** 1 (1=0-19%)

**Q.** And the “percentage damage caused to the plant, AMARE” value [8]?
**A.** 5 (5=80-100%)

**Q.** And the “percentage damage caused to the plant, ECHCG” value [9]?
**A.** 1 (1=0-19%)

**Q.** What about the “percentage damage caused to the plant, IPOHE” value [10] of the same compound?
**A.** 2 (2=20-39%)

**Q.** What about the “percentage damage caused to the plant, SETFA” value [11] of the same compound?
**A.** 1 (1=0-19%)

**Q.** And the “percentage damage caused to the plant, SOLNI” value [12]?
**A.** 4 (4=60-79%)

**Q.** Which results are given for Cc1nc2c(cc1F)cc(C(=O)Nc1nnnn1C)c(=O)n2-c1ccccc1 [Compound 6.003]?
**A.** percentage damage caused to the plant, ALOMY [1]: 1 (1=0-19%); percentage damage caused to the plant, AMARE [2]: 5 (5=80-100%); percentage damage caused to the plant, ECHCG [3]: 4 (4=60-79%); percentage damage caused to the plant, IPOHE [4]: 5 (5=80-100%); percentage damage caused to the plant, SOLNI [5]: 5 (5=80-100%); percentage damage caused to the plant, SETFA [6]: 3 (3=40-59%); percentage damage caused to the plant, ALOMY [7]: 1 (1=0-19%); percentage damage caused to the plant, AMARE [8]: 5 (5=80-100%); percentage damage caused to the plant, ECHCG [9]: 3 (3=40-59%); percentage damage caused to the plant, IPOHE [10]: 3 (3=40-59%); percentage damage caused to the plant, SETFA [11]: 1 (1=0-19%); percentage damage caused to the plant, SOLNI [12]: 5 (5=80-100%)

**Q.** For Cn1nnnc1NC(=O)c1cc2ccccc2n(-c2ccccc2)c1=O [Compound 7.001], which “percentage damage caused to the plant, ALOMY” value [1] is on record?
**A.** 1 (1=0-19%)

**Q.** What about the “percentage damage caused to the plant, AMARE” value [2] of the same compound?
**A.** 3 (3=40-59%)

**Q.** And the “percentage damage caused to the plant, ECHCG” value [3]?
**A.** 2 (2=20-39%)

**Q.** And the “percentage damage caused to the plant, IPOHE” value [4]?
**A.** 2 (2=20-39%)

**Q.** And the “percentage damage caused to the plant, SOLNI” value [5]?
**A.** 4 (4=60-79%)

**Q.** And the “percentage damage caused to the plant, SETFA” value [6]?
**A.** 1 (1=0-19%)

**Q.** What about the “percentage damage caused to the plant, ALOMY” value [7] of the same compound?
**A.** 1 (1=0-19%)

**Q.** What about the “percentage damage caused to the plant, AMARE” value [8] of the same compound?
**A.** 2 (2=20-39%)

**Q.** And the “percentage damage caused to the plant, ECHCG” value [9]?
**A.** 1 (1=0-19%)

**Q.** And the “percentage damage caused to the plant, IPOHE” value [10]?
**A.** 1 (1=0-19%)

**Q.** What about the “percentage damage caused to the plant, SETFA” value [11] of the same compound?
**A.** 1 (1=0-19%)

**Q.** What about the “percentage damage caused to the plant, SOLNI” value [12] of the same compound?
**A.** 1 (1=0-19%)

**Q.** Which “percentage damage caused to the plant, ALOMY” value [1] does the source give for Cn1nnnc1NC(=O)c1cc2ccccc2n(-c2ccsc2)c1=O [Compound 7.002] here?
**A.** 1 (1=0-19%)

**Q.** What about the “percentage damage caused to the plant, AMARE” value [2] of the same compound?
**A.** 3 (3=40-59%)

**Q.** And the “percentage damage caused to the plant, ECHCG” value [3]?
**A.** 2 (2=20-39%)

**Q.** What about the “percentage damage caused to the plant, IPOHE” value [4] of the same compound?
**A.** 2 (2=20-39%)

**Q.** And the “percentage damage caused to the plant, SOLNI” value [5]?
**A.** 5 (5=80-100%)

**Q.** And the “percentage damage caused to the plant, SETFA” value [6]?
**A.** 1 (1=0-19%)

**Q.** What about the “percentage damage caused to the plant, ALOMY” value [7] of the same compound?
**A.** 1 (1=0-19%)

**Q.** And the “percentage damage caused to the plant, AMARE” value [8]?
**A.** 2 (2=20-39%)

**Q.** And the “percentage damage caused to the plant, ECHCG” value [9]?
**A.** 1 (1=0-19%)

**Q.** What about the “percentage damage caused to the plant, IPOHE” value [10] of the same compound?
**A.** 2 (2=20-39%)

**Q.** And the “percentage damage caused to the plant, SETFA” value [11]?
**A.** 1 (1=0-19%)

**Q.** What about the “percentage damage caused to the plant, SOLNI” value [12] of the same compound?
**A.** 3 (3=40-59%)

**Q.** For Cn1nnnc1NC(=O)c1cc2ccncc2n(-c2ccccc2)c1=O [Compound 8.001], which “percentage damage caused to the plant, ALOMY” value [1] is on record?
**A.** 1 (1=0-19%)

**Q.** What about the “percentage damage caused to the plant, AMARE” value [2] of the same compound?
**A.** 5 (5=80-100%)

**Q.** What about the “percentage damage caused to the plant, ECHCG” value [3] of the same compound?
**A.** 4 (4=60-79%)

**Q.** And the “percentage damage caused to the plant, IPOHE” value [4]?
**A.** 3 (3=40-59%)

**Q.** What about the “percentage damage caused to the plant, SOLNI” value [5] of the same compound?
**A.** 5 (5=80-100%)

**Q.** And the “percentage damage caused to the plant, SETFA” value [6]?
**A.** 1 (1=0-19%)

**Q.** What about the “percentage damage caused to the plant, ALOMY” value [7] of the same compound?
**A.** 1 (1=0-19%)

**Q.** What about the “percentage damage caused to the plant, AMARE” value [8] of the same compound?
**A.** 5 (5=80-100%)

**Q.** What about the “percentage damage caused to the plant, ECHCG” value [9] of the same compound?
**A.** 1 (1=0-19%)

**Q.** What about the “percentage damage caused to the plant, IPOHE” value [10] of the same compound?
**A.** 1 (1=0-19%)

**Q.** And the “percentage damage caused to the plant, SETFA” value [11]?
**A.** 1 (1=0-19%)

**Q.** What about the “percentage damage caused to the plant, SOLNI” value [12] of the same compound?
**A.** 2 (2=20-39%)

— patent US9179678B2, “Substituted [1,2,4]triazoles and substituted tetrazoles as herbicides” (SYNGENTA LIMITED, priority 2012, dated 2015)
